# Values quoted from earlier work in US20110028639A1, “ROOM TEMPERATURE VULCANIZABLE POLYMERS” (HONEYWELL INTERNATIONAL, INC., priority 2007, published 2011).
# System: males rats
compound,measurement,value
CC(C)=NO [acetone oxime],tumors in rats,cause tumors
